Experimental data reported in ChEMBL document CHEMBL1201862, “PubChem BioAssay data set” (2004).
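Cultured in 96-well plates, cells were exposed to test compound for 48 hours across five concentrations. GI50: concentration for 50% inhibition of growth.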 The source made the active and inactive calls. Cut-off read from the data, not from the text of the source: active = GI50 up to about 1.1 µM and inactive = higher.

What was measured:
Experiment in all cases: NCI-60 cell line screen, 48 h
XF498 = test system: XF498
RXF 631 = test system: RXF 631
DMS-114 = test system: DMS-114
DMS-273 = test system: DMS-273
LXFL 529 = test system: LXFL 529
SNB-78 = test system: SNB-78
HOP-18 = test system: HOP-18
DLD-1 = test system: DLD-1
BT-549 = test system: BT-549

Measured: GI50

C=C(C(=C)N1N=NC2C3CCC(C3)C21)N1N=NC2C3CCC(C3)C21 (stereo not given)
inactive: XF498 > 100 µM | RXF 631 > 100 µM | DMS-114 > 100 µM | DMS-273 > 100 µM | LXFL 529 > 100 µM | SNB-78 > 100 µM | HOP-18 > 100 µM | DLD-1 > 100 µM

CCOC(=O)c1cn2c([nH]c3ccccc32)c(C#N)c1=O
inactive: XF498 > 100 µM | RXF 631 > 100 µM | DMS-273 > 100 µM | LXFL 529 > 100 µM | SNB-78 > 100 µM | HOP-18 > 100 µM | DLD-1 99.5 µM

COc1ccccc1C(=O)N(Cc1ccccc1)c1ccc(Cl)c(C(=O)OC(C)C)c1
inactive: XF498 14.2 µM | RXF 631 17 µM | BT-549 34.4 µM | DMS-114 12.6 µM | DMS-273 5.98 µM | LXFL 529 23 µM | SNB-78 19.1 µM | HOP-18 14 µM | DLD-1 18.1 µM

Fc1ccc2c(c1)SC1Oc3ccccc3-c3c1c-2nn3-c1ccccc1 (stereo not given)
inactive: XF498 > 100 µM | RXF 631 7.69 µM | DMS-114 > 100 µM | DMS-273 > 100 µM | LXFL 529 > 100 µM | SNB-78 > 100 µM | HOP-18 27 µM | DLD-1 > 100 µM

CCCSS[C@H]1NC(=O)[C@H]1NC(=O)COc1ccccc1
inactive: XF498 17.8 µM | RXF 631 17.5 µM | DMS-114 19 µM | DMS-273 17.4 µM | LXFL 529 5.66 µM | SNB-78 25.8 µM | HOP-18 28 µM | DLD-1 11.1 µM
